Format in all cases: cell-based
In one assay the target is T1, Y1R (Homo sapiens, UniProt P25929).
T1 sequence (P25929 1-384): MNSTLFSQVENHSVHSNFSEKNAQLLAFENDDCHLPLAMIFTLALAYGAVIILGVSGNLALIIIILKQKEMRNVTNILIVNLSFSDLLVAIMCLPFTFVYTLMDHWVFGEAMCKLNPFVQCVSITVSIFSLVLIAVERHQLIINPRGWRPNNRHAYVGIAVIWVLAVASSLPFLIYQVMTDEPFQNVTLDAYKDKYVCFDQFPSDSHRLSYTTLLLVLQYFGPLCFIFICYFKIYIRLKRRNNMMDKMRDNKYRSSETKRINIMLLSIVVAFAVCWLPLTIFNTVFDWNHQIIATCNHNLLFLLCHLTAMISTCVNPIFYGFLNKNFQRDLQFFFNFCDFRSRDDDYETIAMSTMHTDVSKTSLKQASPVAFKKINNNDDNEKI
Kind of assay: CaFlux Assay (FLIPR), Y1R.

The target of another assay is Y4R (Homo sapiens, UniProt P50391). Kind of assay: CaFlux Assay (FLIPR), Y4R.
Sequence of Y4R (P50391 whole entry): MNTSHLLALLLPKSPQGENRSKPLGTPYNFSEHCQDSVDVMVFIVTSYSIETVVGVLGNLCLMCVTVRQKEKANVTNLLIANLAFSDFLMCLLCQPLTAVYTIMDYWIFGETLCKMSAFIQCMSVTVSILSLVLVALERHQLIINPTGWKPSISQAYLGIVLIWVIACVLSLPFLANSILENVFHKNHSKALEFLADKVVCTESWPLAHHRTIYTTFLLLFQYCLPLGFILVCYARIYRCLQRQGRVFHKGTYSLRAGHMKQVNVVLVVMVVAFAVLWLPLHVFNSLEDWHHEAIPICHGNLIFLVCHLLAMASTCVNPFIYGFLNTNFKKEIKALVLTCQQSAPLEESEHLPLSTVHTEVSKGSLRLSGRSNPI
A further assay concerns the target T2, Y5R (Homo sapiens, UniProt Q15761).
T2 sequence (Q15761 1-445): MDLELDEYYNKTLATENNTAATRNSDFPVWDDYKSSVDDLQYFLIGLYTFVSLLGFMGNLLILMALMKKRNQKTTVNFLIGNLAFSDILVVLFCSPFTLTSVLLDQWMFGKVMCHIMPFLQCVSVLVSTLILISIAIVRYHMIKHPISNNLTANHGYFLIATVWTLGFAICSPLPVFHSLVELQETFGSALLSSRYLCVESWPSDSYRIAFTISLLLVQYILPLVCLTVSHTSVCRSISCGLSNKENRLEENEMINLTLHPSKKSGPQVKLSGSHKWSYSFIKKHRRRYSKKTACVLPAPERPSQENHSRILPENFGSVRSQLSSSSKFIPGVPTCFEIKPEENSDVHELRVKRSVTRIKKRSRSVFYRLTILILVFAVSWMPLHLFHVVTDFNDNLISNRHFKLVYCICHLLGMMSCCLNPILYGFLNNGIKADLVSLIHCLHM
Briefly: CaFlux Assay (FLIPR), Y5R.

Assay [1] concerns the target T3, hNPY2R (Homo sapiens, UniProt P49146).
T3 sequence (P49146 1-381): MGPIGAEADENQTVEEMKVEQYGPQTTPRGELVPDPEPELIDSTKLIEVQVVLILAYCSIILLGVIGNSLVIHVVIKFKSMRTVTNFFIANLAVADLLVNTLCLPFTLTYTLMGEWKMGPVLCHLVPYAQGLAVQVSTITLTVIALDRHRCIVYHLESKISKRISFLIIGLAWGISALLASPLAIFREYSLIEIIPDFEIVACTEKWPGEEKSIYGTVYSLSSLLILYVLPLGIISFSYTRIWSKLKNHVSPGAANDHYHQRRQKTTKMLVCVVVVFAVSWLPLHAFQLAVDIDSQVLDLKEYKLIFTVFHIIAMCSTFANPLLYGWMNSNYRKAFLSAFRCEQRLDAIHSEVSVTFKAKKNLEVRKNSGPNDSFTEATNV
Kind of assay: cAMP Agonist Assay, HEK293/hNPY2R. Set-up: expressed in transfected cells; host or cells: HEK293/hNPY2R (G418 selection). The procedure, abridged: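 HEK293/hNPY2R cells (10,000/well, overnight) stimulated 30 min at room temperature with compound plus 5 μM forskolin and 0.5 mM IBMX (1.1% DMSO final). Lysate cAMP measured by competitive chemiluminescent ELISA (AP conjugate, CSPD substrate); quadruplicates.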

Assay [2] has as its target T3, hNPY2R. Briefly: CaFlux Assay (FLIPR), Y2R. Set-up: expressed in transfected cells; host or cells: HEK-293 stably transfected with G protein chimera Gαqi9. The procedure, abridged: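 Intracellular calcium mobilisation was measured in HEK-293 cells engineered with Gαqi9 and the relevant receptor; responses were normalised as % of maximal positive-control signal.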

*1 amine or outer side, *2 acyl side, *3 side chain or, on linkers, in order; H or OH if unused. Where a SMILES comes first, the peptide text is derived from it. [ ]: non-standard residue; d: D form. The star is where a group is joined. MeO(CH2CH2O)23CH2CH2CO = COCCOCCOCCOCCOCCOCCOCCOCCOCCOCCOCCOCCOCCOCCOCCOCCOCCOCCOCCOCCOCCOCCOCCOCCC(=O)*; X1 = O=C(Cn1cnc2ccc(N3CCN([*:1])CC3)cc2c1=O)[*:2]; Arachidoyl = CCCCCCCCCCCCCCCCCCCC(=O)*

For `CCCCCCCCCCCCCCCCCCCC(=O)N[C@@H](CCC(=O)O)C(=O)N[C@@H](CCC(=O)O)C(=O)N[C@H](C(=O)N[C@@H](CCCCNC(=O)CCOCCOCCOCCOCCOCCOCCOCCOC)C(=O)N1CCN(c2ccc3ncn(CC(=O)N[C@@H](CCCNC(N)=O)C(=O)N[C@@H](Cc4c[nH]cn4)C(=O)N[C@@H](Cc4ccc(O)cc4)C(=O)N[C@@H](CC(C)C)C(=O)N[C@@H](CC(N)=O)C(=O)N[C@@H](Cc4c[nH]c5ccccc45)C(=O)N[C@H](C(=O)N[C@H](C(=O)N[C@@H](CCCNC(=N)N)C(=O)N[C@@H](CCC(N)=O)C(=O)N(C)[C@@H](CCCNC(=N)N)C(=O)N[C@@H](Cc4ccc(O)cc4)C(N)=O)[C@@H](C)O)C(C)C)c(=O)c3c2)CC1)[C@@H](C)CC` [Example 44], the half-maximal effective concentration (EC50) at Y1R is more than 6000 nM; on Y4R, more than 6000 nM; on Y5R, more than 6000 nM; at hNPY2R [1], 0.43 nM; at hNPY2R [2] it was 0.313 nM.

Consider `CCCCCCCCCCCCCCCCCCCC(=O)N[C@@H](CCC(=O)O)C(=O)N[C@@H](CCC(=O)O)C(=O)N[C@H](C(=O)N[C@@H](CCCCNC(=O)CCOCCOCCOCCOCCOCCOCCOCCOCCOCCOCCOCCOCCOCCOCCOCCOCCOCCOCCOCCOCCOCCOCCOCCOC)C(=O)N1CCN(c2ccc3ncn(CC(=O)N[C@@H](CCCNC(=N)N)C(=O)N[C@@H](Cc4c[nH]cn4)C(=O)N[C@@H](Cc4ccc(O)cc4)C(=O)N[C@@H](Cc4c[nH]cn4)C(=O)N[C@@H](CC(N)=O)C(=O)N[C@@H](Cc4c[nH]c5ccccc45)C(=O)N[C@H](C(=O)N[C@H](C(=O)N[C@@H](CCCNC(=N)N)C(=O)N[C@@H](CCC(N)=O)C(=O)N[C@@H](CCCNC(=N)N)C(=O)N[C@@H](Cc4ccc(O)cc4)C(N)=O)[C@@H](C)O)C(C)C)c(=O)c3c2)CC1)[C@@H](C)CC` [Example 57] (Arachidoyl-EEIK(MeO(CH2CH2O)23CH2CH2CO)[X1]RHYHNWVTRQRY-NH2), for which the EC50 on Y1R was more than 6000 nM; at Y4R, more than 6000 nM; on Y5R, 5.67 nM; on hNPY2R [1], 0.011 nM; on hNPY2R [2], 0.016 nM.

On to `CC[C@H](C)[C@H](NC(=O)CCCCCNC(=O)CCOCCOCCOCCOCCOCCOCCOCCOC)C(=O)N[C@@H](CCCCN)C(=O)N1CCN(c2ccc3ncn(CC(=O)N[C@@H](CCCNC(=N)N)C(=O)N[C@@H](Cc4c[nH]cn4)C(=O)N[C@@H](Cc4ccc(O)cc4)C(=O)N[C@@H](CC(C)C)C(=O)N[C@@H](CC(N)=O)C(=O)N[C@@H](Cc4c[nH]c5ccccc45)C(=O)N[C@H](C(=O)N[C@H](C(=O)N[C@@H](CCCNC(=N)N)C(=O)N[C@@H](CCC(N)=O)C(=O)N(C)[C@@H](CCCNC(=N)N)C(=O)N[C@@H](Cc4ccc(O)cc4)C(N)=O)[C@@H](C)O)C(C)C)c(=O)c3c2)CC1` [Example 17], for which the 50% effective concentration (EC50) on Y1R is more than 6000 nM; on Y4R it was more than 6000 nM; on Y5R, more than 6000 nM; on hNPY2R [1], 1.4 nM; on hNPY2R [2], 0.479 nM.

`CCCCCCCCCCCCCCCC(=O)NCCCCCC(=O)NCCOCCOCCOCCOCCOCCOCCOCCOCCOCCOCCOCCOCCOCCOCCOCCOCCOCCOCCOCCOCCOCCOCCOCCOCCC(=O)NCCCC[C@H](NC(=O)[C@@H](NC(C)=O)[C@@H](C)CC)C(=O)N1CCN(c2ccc3ncn(CC(=O)N[C@@H](CCCNC(=N)N)C(=O)N[C@@H](Cc4c[nH]cn4)C(=O)N[C@@H](Cc4ccc(O)cc4)C(=O)N[C@@H](CC(C)C)C(=O)N[C@@H](CC(N)=O)C(=O)N[C@@H](Cc4c[nH]c5ccccc45)C(=O)N[C@H](C(=O)N[C@H](C(=O)N[C@@H](CCCNC(=N)N)C(=O)N[C@@H](CCC(N)=O)C(=O)N(C)[C@@H](CCCNC(=N)N)C(=O)N[C@@H](Cc4ccc(O)cc4)C(N)=O)[C@@H](C)O)C(C)C)c(=O)c3c2)CC1` [Example 39]: the EC50 at Y1R is more than 6000 nM; on Y4R it was more than 6000 nM; on Y5R, 1950 nM; at hNPY2R [1] it was 0.07 nM; on hNPY2R [2], 0.038 nM.

Broadly, the EC50 is the concentration that produces a half-maximal response.

For the origin of these results see US20110172147A1, “NEUROPEPTIDE-2 RECEPTOR (Y-2R) AGONISTS” (priority 2009, published 2011).
